Experiments:
[1] = xn = mol fraction of the nth substance listed

C1CCNCC1 [piperidine]
Settings | surface tension liquid-gas [mN/m]
293.15 K | 30.11
298.15 K | 29.56
303.15 K | 29.09
313.15 K | 27.9
323.15 K | 27

C1CCNCC1 [piperidine] + O
surface tension liquid-gas [mN/m], [1]
Settings | 293.15 K | 298.15 K | 303.15 K | 313.15 K | 323.15 K
x1 = 0.0076 | 57.25 | 56.85 | 56.45 | 55.56 | 54.62
x1 = 0.013 | 43.84 | 43.58 | 43.32 | 41.58 | 41.41
x1 = 0.0228 | 38.56 | 38.27 | 37.98 | 37.43 | 37.18
x1 = 0.0458 | 37.78 | 37.2 | 36.62 | 35.76 | 34.37
x1 = 0.092 | 35.44 | 34.99 | 34.54 | 33.69 | 32.61
x1 = 0.1542 | 34.34 | 34.02 | 33.7 | 32.67 | 31.8
x1 = 0.2672 | 33.9 | 33.39 | 32.88 | 32.1 | 31.26
x1 = 0.378 | 33.27 | 32.75 | 32.23 | 31.42 | 30.4
x1 = 0.5657 | 31.38 | 31.15 | 30.92 | 30.01 | 29.2
x1 = 0.7524 | 31.02 | 30.42 | 29.82 | 29.01 | 28.1
x1 = 1 | 30.11 | 29.56 | 29.09 | 27.9 | 27

C1CCNC1 [pyrrolidine]
Settings | surface tension liquid-gas [mN/m]
293.15 K | 30.27
298.15 K | 29.75
303.15 K | 29.02
313.15 K | 27.87
323.15 K | 26.75

C1CCNC1 [pyrrolidine] + O
surface tension liquid-gas [mN/m], [1]
Settings | 293.15 K | 298.15 K | 303.15 K | 313.15 K | 323.15 K
x1 = 0.0156 | 55.61 | 55.32 | 54.98 | 54.1 | 53.26
x1 = 0.0564 | 46.07 | 45.61 | 45.21 | 44.76 | 43.89
x1 = 0.1082 | 41.7 | 41.19 | 40.92 | 40.19 | 39.17
x1 = 0.1792 | 39.7 | 39.74 | 39 | 38.01 | 37.3
x1 = 0.3039 | 37.53 | 37.09 | 36.69 | 35.68 | 34.74
x1 = 0.4212 | 35.97 | 35.45 | 35.11 | 34.44 | 33.15
x1 = 0.5219 | 34.87 | 34.4 | 33.99 | 32.97 | 32.07
x1 = 0.6093 | 33.89 | 33.54 | 33.07 | 31.95 | 31.05
x1 = 0.6858 | 32.99 | 32.59 | 32.39 | 31.11 | 30.25
x1 = 0.7844 | 32.1 | 31.45 | 31.3 | 30.4 | 29.2
x1 = 0.9161 | 31.07 | 30.42 | 30.13 | 29.02 | 27.83
x1 = 1 | 30.27 | 29.75 | 29.02 | 27.87 | 26.75

O [water] + C1CCNC1
[1], x2 = 0
Settings | surface tension liquid-gas [mN/m]
293.15 K | 72.7
298.15 K | 72.05
303.15 K | 71.28
313.15 K | 69.32
323.15 K | 67.88

O [water] + C1CCNCC1
[1], x2 = 0
Settings | surface tension liquid-gas [mN/m]
293.15 K | 72.7
298.15 K | 72.05
303.15 K | 71.28
313.15 K | 69.32
323.15 K | 67.88

Reference: the NIST ThermoML archive (doi:10.1021/je049888n)
